From patent US10364222B2, “Cyclic amine derivative and medical use thereof” (Toray Industries, Inc., priority 2016, dated 2019)

Tested on: IL-17 production in mouse splenocytes
Experiment: Suppressive effect on IL-17 production by IL-23 stimulation in mouse splenocytes
Type: cell-based
Settings: Splenocyte, 72 h, at 5 μmol/L of the test compound, 10 ng/mL human IL-23, 3 days, read-out: IL-17 production inhibition rate (%)
Experimental: Using mouse splenocytes, the suppressive effect of the cyclic amine derivative (I) or a pharmacologically acceptable salt thereof on IL-17 production by IL-23 stimulation was evaluated by a partially modified method mentioned in The Journal of Biological Chemistry, 2003, Vol. 278, No. 3, p. 1910-1914.
A single cell suspension was prepared from the spleen of C57BL/6J mice (male, 7 to 23 weeks old) (Charles River Laboratories Japan, Inc.) and splenocytes were prepared using Histopaque-1083 (Sigma-Aldrich Japan). The culture medium was used by adding 10% FBS (Gibco), 50 U/mL of penicillin 50 μg/mL of streptomycin (Gibco), 50 μmol/L of 2-mercaptoethanol (Gibco), and 100 U/mL of human IL-2 (Cell Science & Technology Institute, Inc.) to RPMI1640 medium (Gibco). The test compound was dissolved in DMSO and then diluted with the culture medium to have a final concentration of DMSO of 0.1% before use. Splenocytes (3×10^5 cells/well) prepared in the culture medium were seeded in wells of a 96-well flat-bottom plate (Corning Incorporated), the test compound and 10 ng/mL of human IL-23 (R & D systems, Inc.) were added thereto, and the cells were cultured at 37° C. under 5% CO2 for 3 days. A well without addition of human IL-23 and without addition of the test compound and a well with addition of human IL-23 and without addition of the test compound were prepared. After completion of the culture, the culture supernatant was collected and the IL-17 production amount in the supernatant was determined by ELISA method (R & D systems, Inc.).
The IL-17 production inhibition rate (%) was calculated from Formula 2. IL-17 production inhibition rate(%)=(1−((IL-17 production amount with addition of IL-23 and with addition of the test compound)−(IL-17 production amount without addition of IL-23 and without addition of the test compound))/((IL-17 production amount with addition of IL-23 and without addition of the test compound)−(IL-17 production amount without addition of IL-23 and without addition of the test compound)))×100 Formula 2

Structure (SMILES)	inhibition at 5 µM
CS(=O)(=O)NCCC(=O)N1CCCCC1C(=O)Nc1ccc(-c2ccccc2OC(F)(F)F)c(Cl)c1 (stereo not shown) [Example 32, N-(2-chloro-2′-(trifluoromethoxy)-[1,1′-biphenyl]-4-yl)-1-(3-(methylsulfonamide)propanoyl)piperidine-2-carboxamide]	98.8%
O=C(O)CCCC(=O)N1CCCC[C@@H]1C(=O)Nc1ccc(-c2ccccc2OC(F)(F)F)c(Cl)c1 [Example 70, (R)-5-(2-((2-chloro-2′-(trifluoromethoxy)-[1,1′-biphenyl]-4-yl)carbamoyl)piperidin-1-yl)-5-oxopentanoic acid]	99.7%
O=C(Nc1ccc(-c2ccccc2OC(F)(F)F)c(Cl)c1)[C@H]1CCCCN1C(=O)CCn1ccnc1 [Example 59, (R)-1-(3-(1H-imidazol-1-yl)propanoyl)-N-(2-chloro-2′-(trifluoromethoxy)-[1,1′-biphenyl]-4-yl)piperidine-2-carboxamide]	99.8%
O=C(Nc1ccc(-c2ccccc2OC(F)(F)F)c(Cl)c1)C1CCCCN1C(=O)c1cn[nH]c1 (stereo not shown) [Example 48, N-(2-chloro-2′-(trifluoromethoxy)-[1,1′-biphenyl]-4-yl)-1-(1H-pyrazole-4-carbonyl)piperidine-2-carboxamide]	99.4%
CC(=O)N1CC[C@@H](O)C[C@@H]1C(=O)Nc1ccc(-c2ccccc2OC(F)(F)F)c(Cl)c1 [Example 27, (2R,4R)-1-acetyl-N-(2-chloro-2′-(trifluoromethoxy)-[1,1′-biphenyl]-4-yl)-4-hydroxypiperidine-2-carboxamide]	97.4%
CN(C)CCC(=O)N1CCCCC1C(=O)Nc1ccc(-c2ccccc2OC(F)(F)F)c(Cl)c1 (stereo not shown) [Example 33, N-(2-chloro-2′-(trifluoromethoxy)-[1,1′-biphenyl]-4-yl)-1-(3-(dimethylamino)propanoyl)piperidine-2-carboxamide]	98.3%
CN(C)CCC(=O)N1CCCC[C@@H]1C(=O)Nc1ccc(-c2ccccc2OC(F)(F)F)c(Cl)c1 [Example 68, (R)-N-(2-chloro-2′-(trifluoromethoxy)-[1,1′-biphenyl]-4-yl)-1-(3-(dimethylamino)propanoyl)piperidine-2-carboxamide]	99.4%
CC(=O)NCC(=O)N1CCCCC1C(=O)Nc1ccc(-c2ccccc2OC(F)(F)F)c(Cl)c1 (stereo not shown) [Example 9, 1-(2-acetamideacetyl)-N-(2-chloro-2′-(trifluoromethoxy)-[1,1′-biphenyl]-4-yl)piperidine-2-carboxamide]	94.6%
NCCC(=O)N1CCCCC1C(=O)Nc1ccc(-c2ccccc2OC(F)(F)F)c(Cl)c1 (stereo not shown) [Example 30, 1-(3-aminopropanoyl)-N-(2-chloro-2′-(trifluoromethoxy)-[1,1′-biphenyl]-4-yl)piperidine-2-carboxamide]	99.8%
CNCCC(=O)N1CCCC[C@@H]1C(=O)Nc1ccc(-c2ccccc2OC(F)(F)F)c(Cl)c1 [Example 41, (R)-N-(2-chloro-2′-(trifluoromethoxy)-[1,1′-biphenyl]-4-yl)-1-(3-(methylamino)propanoyl)piperidine-2-carboxamide]	99.1%
CC(=O)NCCC(=O)N1CCCCC1C(=O)Nc1ccc(-c2ccccc2OC(F)(F)F)c(Cl)c1 (stereo not shown) [Example 31, 1-(3-acetamidepropanoyl)-N-(2-chloro-2′-(trifluoromethoxy)-[1,1′-biphenyl]-4-yl)piperidine-2-carboxamide]	99.1%
CN(C)CC(=O)N1CCCCC1C(=O)Nc1ccc(-c2ccccc2OC(F)(F)F)c(Cl)c1 (stereo not shown) [Example 6, N-(2-chloro-2′-(trifluoromethoxy)-[1,1′-biphenyl]-4-yl)-1-(2-(dimethylamino)acetyl)piperidine-2-carboxamide]	91.6%
CC(=O)N(C)CCC(=O)N1CCCCC1C(=O)Nc1ccc(-c2ccccc2OC(F)(F)F)c(Cl)c1 (stereo not shown) [Example 35, N-(2-chloro-2′-(trifluoromethoxy)-[1,1′-biphenyl]-4-yl)-1-(3-(N-methylacetamide)propanoyl)piperidine-2-carboxamide]	94.9%
CC(=O)N(C)CC(=O)N1CCCCC1C(=O)Nc1ccc(-c2ccccc2OC(F)(F)F)c(Cl)c1 (stereo not shown) [Example 12, N-(2-chloro-2′-(trifluoromethoxy)-[1,1′-biphenyl]-4-yl)-1-(2-(N-methylacetamide)acetyl)piperidine-2-carboxamide]	96.1%
CNCCC(=O)N1CCCCC1C(=O)Nc1ccc(-c2ccccc2OC(F)(F)F)c(Cl)c1 (stereo not shown) [Example 34, N-(2-chloro-2′-(trifluoromethoxy)-[1,1′-biphenyl]-4-yl)-1-(3-(methylamino)propanoyl)piperidine-2-carboxamide]	100%
O=C(Nc1ccc(-c2ccccc2OC(F)(F)F)c(Cl)c1)C1CCCCN1C(=O)C(F)F (stereo not shown) [Example 7, N-(2-chloro-2′-(trifluoromethoxy)-[1,1′-biphenyl]-4-yl)-1-(2,2-difluoroacetyl)piperidine-2-carboxamide]	99%
CC(=O)N1CC[C@H](O)C[C@@H]1C(=O)Nc1ccc(-c2ccccc2OC(F)(F)F)c(Cl)c1 [Example 24, (2R,4S)-1-acetyl-N-(2-chloro-2′-(trifluoromethoxy)-[1,1′-biphenyl]-4-yl)-4-hydroxypiperidine-2-carboxamide]	95.7%
CS(=O)(=O)N1CC[C@H](O)C[C@@H]1C(=O)Nc1ccc(-c2ccccc2OC(F)(F)F)c(Cl)c1 [Example 26, (2R,4S)—N-(2-chloro-2′-(trifluoromethoxy)-[1,1′-biphenyl]-4-yl)-4-hydroxy-1-(methylsulfonyl)piperidine-2-carboxamide]	96.4%
CNCC(=O)N1CCCCC1C(=O)Nc1ccc(-c2ccccc2OC(F)(F)F)c(Cl)c1 (stereo not shown) [Example 11, N-(2-chloro-2′-(trifluoromethoxy)-[1,1′-biphenyl]-4-yl)-1-(2-(methylamino)acetyl)piperidine-2-carboxamide]	94.1%
NCCC(=O)N1CCCC[C@@H]1C(=O)Nc1ccc(-c2ccccc2OC(F)(F)F)c(Cl)c1 [Example 38, (R)-1-(3-aminopropanoyl)-N-(2-chloro-2′-(trifluoromethoxy)-[1,1′-biphenyl]-4-yl)piperidine-2-carboxamide]	99%
O=C(Nc1ccc(-c2ccccc2OC(F)(F)F)c(Cl)c1)[C@H]1CCCCN1C(=O)Cn1cncn1 [Example 63, (R)-1-(2-(1H-1,2,4-triazol-1-yl)acetyl)-N-(2-chloro-2′-(trifluoromethoxy)-[1,1′-biphenyl]-4-yl)piperidine-2-carboxamide]	99.9%
O=C(Nc1ccc(-c2ccccc2OC(F)(F)F)c(Cl)c1)[C@H]1CCCCN1C(=O)Cn1cnnc1 [Example 62, (R)-1-(2-(4H-1,2,4-triazol-4-yl)acetyl)-N-(2-chloro-2′-(trifluoromethoxy)-[1,1′-biphenyl]-4-yl)piperidine-2-carboxamide]	100%

Target: T1, ligand-binding domain of RORγ (RORγ-LBD) (Homo sapiens, UniProt P51449)
T1 construct: purchased Invitrogen
T1 sequence (P51449 269-508 limits assumed): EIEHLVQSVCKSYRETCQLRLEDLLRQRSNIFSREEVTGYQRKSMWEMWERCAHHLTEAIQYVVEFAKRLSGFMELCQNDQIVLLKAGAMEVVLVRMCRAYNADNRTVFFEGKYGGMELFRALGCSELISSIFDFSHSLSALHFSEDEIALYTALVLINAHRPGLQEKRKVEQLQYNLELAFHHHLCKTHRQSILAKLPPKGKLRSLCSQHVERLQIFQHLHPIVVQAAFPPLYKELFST
Experiment: Inhibitory effect on RORγ-coactivator binding (LanthaScreen TR-FRET RORγ Coactivator Assay)
Settings: at 33 μmol/L of the test compound; read-out: RORγ-coactivator binding inhibition rate (%)
Experimental: The inhibitory effect of the cyclic amine derivative (I) or a pharmacologically acceptable salt thereof on the binding between a ligand-binding domain of RORγ (hereinafter referred to as RORγ-LBD) and a coactivator was evaluated using Invitrogen's LanthaScreen™TR-FRET Retinoid-Related Orphan Receptor (ROR) gamma Coactivator Assay kit utilizing time-resolved fluorescence energy transfer (TR-FRET).
The test compound was dissolved in DMSO and diluted with TR-FRET Coregulator Buffer D (Invitrogen) containing 5 mmol/L of DTT to have a final DMSO concentration of 1% before use. To each well of a 384-well black plate (Corning Inc.), 4 nmol/L of GST-fused RORγ-LBD (Invitrogen) diluted with the buffer mentioned above and the test compound were added. A well without addition of the test compound and without addition of GST-fused RORγ-LBD (background) and a well without addition of the test compound and with addition of GST-fused RORγ-LBD (control) were prepared. Next, 150 nmol/L of fluorescein-labeled TRAP220/DRIP-2 (Invitrogen) diluted with the buffer mentioned above and 32 nmol/L of terbium-labeled anti-GST antibody (Invitrogen) were added to each well. After incubating the plate at room temperature for 16 to 24 hours, the fluorescence at 495 nm and 520 nm when excited at 320 nm was measured for each well and the ratio (fluorescence value at 520 nm/fluorescence value at 495 nm) was calculated.
The fold change with addition of the test compound (ratio with addition of the test compound/ratio of the background), the fold change of the control (ratio of the control/ratio of the background), and the fold change of the background (ratio of the background/ratio of the background) were calculated, and then the inhibition rate of binding between RORγ-LBD and a coactivator (hereinafter referred to as RORγ-coactivator binding inhibition rate) (%) was calculated from Formula 1: RORγ-coactivator binding inhibition rate(%)=(1−((Fold change with addition of the test compound)−(Fold change of the background))/((Fold change of the control)−(Fold change of the background)))×100 Formula 1

Structure (SMILES)	inhibition at 33 µM
CS(=O)(=O)NCCC(=O)N1CCCCC1C(=O)Nc1ccc(-c2ccccc2OC(F)(F)F)c(Cl)c1 (stereo not shown) [Example 32, N-(2-chloro-2′-(trifluoromethoxy)-[1,1′-biphenyl]-4-yl)-1-(3-(methylsulfonamide)propanoyl)piperidine-2-carboxamide]	94.7%
O=C(Nc1ccc(-c2ccccc2OC(F)(F)F)c(Cl)c1)[C@H]1CCCCN1C(=O)CCn1ccnc1 [Example 59, (R)-1-(3-(1H-imidazol-1-yl)propanoyl)-N-(2-chloro-2′-(trifluoromethoxy)-[1,1′-biphenyl]-4-yl)piperidine-2-carboxamide]	95.5%
O=C(Nc1ccc(-c2ccccc2OC(F)(F)F)c(Cl)c1)C1CCCCN1C(=O)c1cn[nH]c1 (stereo not shown) [Example 48, N-(2-chloro-2′-(trifluoromethoxy)-[1,1′-biphenyl]-4-yl)-1-(1H-pyrazole-4-carbonyl)piperidine-2-carboxamide]	102%
